Experimental data taken from patent publication US20070032460A1, “Use of voacamine and related compounds in the treatment of malaria” (priority 2005, published 2007).
Where two headings read alike, the source gives them in different places. Values belong to the compound of their own block, whether it stands above or below them.

Legend:
[1] = test system: CQ-sensitive (D6) strain of P. falciparum; type: cell-based
[2] = doses of 2000 and 5000 mg/day; cited from earlier work
Plasmodium falciparum = conditions: verapamil alone, without chloroquine; cited from earlier work
[3] = Plasmodium falciparum, D6, chloroquine-sensitive strain of P. falciparum, in vitro, Table V, read-out: IC50 (10^−7 M) S
[4] = chloroquine-sensitive strain of P. falciparum, in vitro, Table V, read-out: IC50 (10^−7 M) S

- IC50 [1, 3]: 470 nM
Compound: C/C=C1/CN(C)[C@H]2Cc3c([nH]c4ccccc34)C(=O)C[C@H]1[C@@H]2C(=O)OC [VOB, Vobasine]

Compound: Decarbomethoxyvoacamine [DCV]
- IC50 [1, 4]: 490 nM

Compound: Voacamidine [VDN]
- IC50 [1, 4]: 510 nM

Compound: CCN(CC)CCCC(C)Nc1ccnc2cc(Cl)ccc12 (centres unmarked) [CQ, chloroquine, reference compound]
- IC50 ([1]; Plasmodium falciparum, D6, read-out: IC50, single drug): 28.5 ± 3.5 nM
- IC50 ([1]; Plasmodium falciparum, D6, read-out: IC50 of each drug in combination VOA (1.0 μM) CQ (0.3 μM)): 15.9 ± 2.7 nM
- IC50 ([1]; Plasmodium falciparum, D6, read-out: IC50 of each drug in combination VOA (2.0 μM) CQ (0.2 μM)): 13.5 ± 2.9 nM
- IC50 ([1]; Plasmodium falciparum, D6, read-out: IC50 of each drug in combination VOA (3.0 μM) CQ (0.1 μM)): 8.2 ± 1.5 nM

Compound: CC=C1CN(C)C2Cc3c([nH]c4ccccc34)C(c3cc4[nH]c5c(c4cc3OC)CCN3CC4CC(CC)C3C5(C(=O)OC)C4)CC1C2C(=O)OC (centres unmarked) [VOA, Voacamine]
- IC50 ([1]; Plasmodium falciparum, D6, read-out: IC50 (10^−7 M) S, chloroquine-sensitive strain of P. falciparum, in vitro, Table V): 240 nM
- IC50 ([1]; Plasmodium falciparum, D6, read-out: IC50, single drug, S strain (D6), drug alone, Table 1, mean ± S.D., three experiments): 238 ± 23.7 nM
- IC50 ([1]; Plasmodium falciparum, D6, read-out: IC50, single drug, S strain (D6), drug alone, Table II, mean ± S.D., three experiments): 298 ± 59.8 nM
- IC50 ([1]; Plasmodium falciparum, D6, read-out: IC50 of each drug in combination VOA (1.0 μM) CQ (0.3 μM), S strain (D6), VOA/CQ ratio 10:3): 56.9 ± 8.2 nM
- IC50 ([1]; Plasmodium falciparum, D6, read-out: IC50 of each drug in combination VOA (1.0 μM) QHS (0.3 μM), S strain (D6), VOA/QHS ratio 10:3): 87.2 ± 9.5 nM
- IC50 ([1]; Plasmodium falciparum, D6, read-out: IC50 of each drug in combination VOA (2.0 μM) CQ (0.2 μM), S strain (D6), VOA/CQ ratio 10:1): 114 ± 25.1 nM
- IC50 ([1]; Plasmodium falciparum, D6, read-out: IC50 of each drug in combination VOA (2.0 μM) QHS (0.2 μM), S strain (D6), VOA/QHS ratio 10:1): 114 ± 5.6 nM
- IC50 ([1]; Plasmodium falciparum, D6, read-out: IC50 of each drug in combination VOA (3.0 μM) CQ (0.1 μM), S strain (D6), VOA/CQ ratio 30:1): 223 ± 35.8 nM
- IC50 ([1]; Plasmodium falciparum, D6, read-out: IC50 of each drug in combination VOA (3.0 μM) QHS (0.1 μM), S strain (D6), VOA/QHS ratio 30:1): 240 ± 45.3 nM
- toxicity in prior studies [2]: minimal toxicity

Compound: N6Demethylvoacamine [NDV]
- IC50 [1, 4]: 470 nM

Compound: C[C@@H]1CC[C@H]2[C@@H](C)C(=O)O[C@@H]3O[C@@]4(C)CC[C@@H]1[C@]32OO4 [QHS, qinghaosu, reference compound]
- IC50 ([1]; S strain (D6), VOA/QHS ratio 10:1, read-out: IC50 of each drug in combination VOA (2.0 μM) QHS (0.2 μM)): 14.6 ± 0.8 nM
- IC50 ([1]; S strain (D6), VOA/QHS ratio 10:3, read-out: IC50 of each drug in combination VOA (1.0 μM) QHS (0.3 μM)): 25.9 ± 2.5 nM
- IC50 ([1]; S strain (D6), VOA/QHS ratio 30:1, read-out: IC50 of each drug in combination VOA (3.0 μM) QHS (0.1 μM)): 9.7 ± 2.3 nM
- IC50 ([1]; S strain (D6), drug alone, Table II, mean ± S.D., three experiments, read-out: IC50, single drug): 38.3 ± 4.7 nM

Compound: Tabernamine
- IC50 [1, 4]: 650 nM

Compound: CC[C@H]1C[C@@H]2CN3CCc4c([nH]c5ccccc45)[C@](C(=O)OC)(C2)[C@H]13 [COR, Coronaridine]
- IC50 [1, 3]: 500 nM

Compound: COc1ccc(CCN(C)CCCC(C#N)(c2ccc(OC)c(OC)c2)C(C)C)cc1OC (centres unmarked) [verapamil]
- effect on malaria, drug alone (Plasmodium falciparum): no effect

Compound: Ervahanine
- IC50 [1, 4]: 680 nM
